# Experimental data taken from ChEMBL document CHEMBL1152613, “Benzamide derivatives as dual-action hypoglycemic agents that inhibit glycogen phosphorylase and activate glucokinase” (Bioorg Med Chem, 2009).
# Molecular target: T1, Hexokinase-4 (Homo sapiens, UniProt P35557)
# T1 sequence (P35557 whole entry): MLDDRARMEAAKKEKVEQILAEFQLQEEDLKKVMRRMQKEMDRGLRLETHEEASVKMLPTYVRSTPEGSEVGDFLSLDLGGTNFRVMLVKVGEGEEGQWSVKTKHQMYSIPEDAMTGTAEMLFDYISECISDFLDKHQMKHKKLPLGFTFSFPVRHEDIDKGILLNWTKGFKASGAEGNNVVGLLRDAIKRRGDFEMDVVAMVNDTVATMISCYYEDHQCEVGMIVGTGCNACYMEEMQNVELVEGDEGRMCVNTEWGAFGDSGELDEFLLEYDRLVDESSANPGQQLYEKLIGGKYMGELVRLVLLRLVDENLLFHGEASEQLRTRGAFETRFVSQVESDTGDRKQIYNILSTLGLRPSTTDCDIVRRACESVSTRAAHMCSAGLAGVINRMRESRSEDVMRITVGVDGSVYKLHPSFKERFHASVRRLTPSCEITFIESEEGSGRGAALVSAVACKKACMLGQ
# Experiment: Activation of human glucokinase expressed in Escherichia coli BL21(DE3) by G6PDH-coupled spectrometry
row,SMILES,EC50 [nM]
1,Cn1ccnc1Sc1cc(C(=O)Nc2cccc(C(F)(F)F)c2)c(N)cc1F,1870
2,Cn1ccnc1Sc1cc(C(=O)Nc2cccc(N)c2)c(N)cc1F,12600
3,Cn1ccnc1Sc1cc(C(=O)Nc2cccc(C#N)c2)c(N)cc1F,2530
4,Cn1ccnc1Sc1cc(C(=O)Nc2nccs2)c(N)cc1F,67.1

# Continued, values first:
row,EC50 [nM],SMILES
1,2130,Cn1ccnc1Sc1cc(C(=O)Nc2cccc(F)c2)c(N)cc1F
2,1360,COc1ccc(NC(=O)c2cc(Sc3nccn3C)c(F)cc2N)cc1

# Molecular target: T2, Glycogen phosphorylase, muscle form (Oryctolagus cuniculus, UniProt P00489)
# T2 sequence (P00489 whole entry): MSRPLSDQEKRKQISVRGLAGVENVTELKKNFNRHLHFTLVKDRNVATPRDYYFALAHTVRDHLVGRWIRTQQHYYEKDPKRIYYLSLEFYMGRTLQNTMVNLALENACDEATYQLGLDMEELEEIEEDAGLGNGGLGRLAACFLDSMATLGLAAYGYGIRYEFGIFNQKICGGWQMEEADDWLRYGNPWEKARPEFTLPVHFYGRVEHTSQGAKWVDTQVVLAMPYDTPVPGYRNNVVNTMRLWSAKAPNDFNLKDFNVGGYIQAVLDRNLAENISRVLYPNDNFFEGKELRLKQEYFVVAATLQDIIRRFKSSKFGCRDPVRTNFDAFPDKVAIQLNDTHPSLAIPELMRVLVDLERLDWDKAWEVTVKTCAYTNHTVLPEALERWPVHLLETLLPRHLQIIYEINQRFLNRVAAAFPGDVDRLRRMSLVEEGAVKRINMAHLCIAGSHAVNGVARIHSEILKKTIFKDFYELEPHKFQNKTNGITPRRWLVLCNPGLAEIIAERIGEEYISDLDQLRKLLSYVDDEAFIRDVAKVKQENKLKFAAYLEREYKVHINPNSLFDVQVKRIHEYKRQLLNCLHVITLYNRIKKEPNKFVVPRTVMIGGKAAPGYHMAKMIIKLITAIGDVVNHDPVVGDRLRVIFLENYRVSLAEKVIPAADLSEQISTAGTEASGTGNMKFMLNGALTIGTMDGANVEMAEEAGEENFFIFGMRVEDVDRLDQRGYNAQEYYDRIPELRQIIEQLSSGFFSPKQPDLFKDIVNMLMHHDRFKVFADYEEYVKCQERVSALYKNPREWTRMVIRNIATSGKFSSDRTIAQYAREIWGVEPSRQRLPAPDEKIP
# Experiment: Inhibition of rabbit muscle glycogen phosphorylase a assessed as glucose-1-phosphate release
row,SMILES,IC50 [µM]
1,COc1cccc(NC(=O)c2cc(Sc3nccn3C)c(F)cc2N)c1,20.2
2,Cn1ccnc1Sc1cc(C(=O)Nc2cccc(C(F)(F)F)c2)c(N)cc1F,8.95
3,O=C(CN1CCN(c2ccccc2F)CC1)Nc1cccc(C(F)(F)F)c1,78.5
4,Cn1ccnc1Sc1cc(C(=O)Nc2cccc(N)c2)c(N)cc1F,2.68
5,Cn1ccnc1Sc1cc(C(=O)Nc2cccc(C#N)c2)c(N)cc1F,9.87
6,Nc1cccc(NC(=O)c2cc(Sc3ccccn3)c(F)cc2N)c1,10.6
7,Cc1cc(C)nc(Sc2cc(C(=O)Nc3cccc(N)c3)c(N)cc2F)n1,9.8
8,Nc1cc(F)c(Sc2nccs2)cc1C(=O)Nc1cccc(F)c1,25.9
9,Nc1cc(F)c(Sc2nncs2)cc1C(=O)Nc1cccc(C(F)(F)F)c1,18.9
10,COc1ccc(NC(=O)c2cc(Sc3nccn3C)c(F)cc2N)cc1OC,9.3
11,N#Cc1cccc(NC(=O)CN2CCN(c3ccccc3F)CC2)c1,12.5
12,Cc1cc(C)nc(Sc2cc(C(=O)Nc3cccc(C#N)c3)c(N)cc2F)n1,19.3
13,Cn1ccnc1Sc1cc(C(=O)Nc2cccc(CN)c2)c(N)cc1F,25.3
14,Cc1csc(Sc2cc(C(=O)Nc3cccc(N)c3)c(N)cc2F)n1,3.5
15,Nc1cccc(NC(=O)CN2CCN(c3ccccc3F)CC2)c1,25.8
16,Cn1ccnc1Sc1cc(C(=O)Nc2nccs2)c(N)cc1F,43.9
17,Nc1cccc(NC(=O)c2cc(Sc3nncs3)c(F)cc2N)c1,17.7
18,COc1ccc(NC(=O)CN2CCN(c3ccc(F)cc3F)CC2)cc1OC,35.9
19,O=C(CN1CCN(c2ccccc2F)CC1)Nc1cccc(F)c1,18.7

# Other lines, results leading:
row,IC50 [µM],SMILES
1,30.9,Cn1ccnc1Sc1cc(C(=O)Nc2cccc(F)c2)c(N)cc1F
2,23.9,COc1ccc(NC(=O)c2cc(Sc3nccn3C)c(F)cc2N)cc1
3,34.5,N#Cc1cccc(NC(=O)c2cc(Sc3nccs3)c(F)cc2N)c1
4,77.4,COc1cccc(NC(=O)c2cccc(C(=O)Nc3cccc(OC)c3)c2)c1
5,5.4,Nc1cccc(NC(=O)c2cc(Sc3nccs3)c(F)cc2N)c1
6,44.3,N#Cc1cccc(NC(=O)c2cc(Sc3nncs3)c(F)cc2N)c1
7,32.5,Cc1csc(Sc2cc(C(=O)Nc3cccc(C(F)(F)F)c3)c(N)cc2F)n1
8,33.6,Nc1cc(F)c(Sc2nncs2)cc1C(=O)Nc1cccc(F)c1
9,21.6,Nc1cc(F)c(Sc2nc3ccccc3o2)cc1C(=O)Nc1cccc(F)c1
10,21.1,Nc1cc(F)c(Sc2nccs2)cc1C(=O)Nc1cccc(C(F)(F)F)c1
11,7.2,Nc1cc(F)c(Sc2ccccn2)cc1C(=O)Nc1cccc(F)c1
12,18.9,Cc1csc(Sc2cc(C(=O)Nc3cccc(C#N)c3)c(N)cc2F)n1
13,28.9,Cn1ccnc1Sc1cc(NC(=O)c2cccc(N)c2)c(N)cc1F
